Test results published in patent US11111251B2, “Positive allosteric modulators of the muscarinic acetylcholine receptor M1” (Vanderbilt University, priority 2016, dated 2021).

Biological target: T1, human mAChR M1 (Homo sapiens, UniProt P11229)
T1 sequence (P11229 1-460): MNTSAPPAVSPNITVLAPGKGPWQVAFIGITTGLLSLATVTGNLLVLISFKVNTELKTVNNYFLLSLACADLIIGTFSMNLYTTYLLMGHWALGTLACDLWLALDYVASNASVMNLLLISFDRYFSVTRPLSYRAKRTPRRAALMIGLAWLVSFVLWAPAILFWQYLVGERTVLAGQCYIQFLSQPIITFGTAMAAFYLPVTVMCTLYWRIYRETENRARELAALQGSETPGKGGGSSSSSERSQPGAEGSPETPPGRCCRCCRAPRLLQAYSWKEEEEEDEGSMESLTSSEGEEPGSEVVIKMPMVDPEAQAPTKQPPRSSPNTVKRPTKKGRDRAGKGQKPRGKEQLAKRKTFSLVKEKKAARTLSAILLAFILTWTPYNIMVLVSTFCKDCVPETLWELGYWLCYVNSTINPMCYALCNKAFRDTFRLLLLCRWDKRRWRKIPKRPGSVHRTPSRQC
Test: mAChR M1 cell-based functional assay: calcium mobilization, positive allosteric modulator mode (increase in EC20 acetylcholine response)
Details: Table 2, human M1; for EC50: read-out: Human M1 EC50; for Emax: read-out: Human M1 Emax (%)
Procedure, shortened: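 PAM potency reflects the concentration-dependent increase in calcium response to an EC20 acetylcholine challenge, given 144 s into a 300 s read after compound addition at 4 s (EC80 follows at 230 s). Cells were hM1-expressing CHO-K1, loaded 50 min with Fluo-4 AM. Curves used 11 points at 1:3 dilutions and four-parameter logistic fitting.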

Cc1nc(-c2ccc(Cc3cc(C(=O)NC4CCCCNC4=O)nc4ccsc34)cc2)cs1 (centres unmarked) [Compound 199, 7-[[4-(2-methylthiazol-4-yl)phenyl]methyl]-N-(2-oxoazepan-3-yl)thieno[3,2-b]pyridine-5-carboxamide]
EC50: 1420 nM
Emax: 88.1%

O=C(N[C@@H]1CC[C@H]1O)c1cc(Cc2ccc(-c3cscn3)cc2)c2sccc2n1 [Compound 200, N-[(1R,2R)-2-hydroxycyclobutyl]-7-[(4-thiazol-4-ylphenyl)methyl]thieno[3,2-b]pyridine-5-carboxamide]
EC50: 116 nM
Emax: 89.4%

O=C(NC12CC(C1)C2)c1cc(Cc2ccc(-c3cscn3)cc2)c2sccc2n1 [Compound 201, N-(3-bicyclo[1.1.1]pentanyl)-7-[(4-thiazol-4-ylphenyl)methyl]thieno[3,2-b]pyridine-5-carboxamide]
EC50: > 10000 nM
Emax: 38.5%

O=C(NC1COC1)c1cc(Cc2ccc(-c3cscn3)cc2)c2sccc2n1 [Compound 202, N-(oxetan-3-yl)-7-[(4-thiazol-4-ylphenyl)methyl]thieno[3,2-b]pyridine-5-carboxamide]
EC50: 1370 nM
Emax: 63.7%

CC(C)(C)N1CC(NC(=O)c2cc(Cc3ccc(-c4cscn4)cc3)c3sccc3n2)C1 [Compound 203, N-(1-tert-butylazetidin-3-yl)-7-[(4-thiazol-4-ylphenyl)methyl]thieno[3,2-b]pyridine-5-carboxamide]
EC50: 2200 nM
Emax: 75.3%

COC1CC(NC(=O)c2cc(Cc3ccc(-c4cscn4)cc3)c3sccc3n2)C1 (centres unmarked) [Compound 204, N-(3-methoxycyclobutyl)-7-[(4-thiazol-4-ylphenyl)methyl]thieno[3,2-b]pyridine-5-carboxamide]
EC50: 897 nM
Emax: 83.5%

O=C(NC1CC(F)C1)c1cc(Cc2ccc(-c3cscn3)cc2)c2sccc2n1 (centres unmarked) [Compound 205, N-(3-fluorocyclobutyl)-7-[(4-thiazol-4-ylphenyl)methyl]thieno[3,2-b]pyridine-5-carboxamide]
EC50: 1720 nM
Emax: 78%

O=C(N[C@H]1CCC[C@@H]1O)c1cc(Cc2ccc(-c3cscn3)cc2)c2sccc2n1 [Compound 206, N-[(1S,2S)-2-hydroxycyclopentyl]-7-[(4-thiazol-4-ylphenyl)methyl]thieno[3,2-b]pyridine-5-carboxamide]
EC50: 38.8 nM
Emax: 87%

O=C(N[C@@H]1CCOC1)c1cc(Cc2ccc(-c3cscn3)cc2)c2sccc2n1 [Compound 207, N-[(3R)-tetrahydrofuran-3-yl]-7-[(4-thiazol-4-ylphenyl)methyl]thieno[3,2-b]pyridine-5-carboxamide]
EC50: 2970 nM
Emax: 77%

O=C(N[C@H]1CCOC1)c1cc(Cc2ccc(-c3cscn3)cc2)c2sccc2n1 [Compound 208, N-[(3S)-tetrahydrofuran-3-yl]-7-[(4-thiazol-4-ylphenyl)methyl]thieno[3,2-b]pyridine-5-carboxamide]
EC50: 1880 nM
Emax: 80.3%

O=C(NC1CCCCC1)c1cc(Cc2ccc(-c3cscn3)cc2)c2sccc2n1 [Compound 209, N-cyclohexyl-7-[(4-thiazol-4-ylpheny)methyl]thieno[3,2-b]pyridine-5-carboxamide]
EC50: 3890 nM
Emax: 69.7%

CN1CCCC(NC(=O)c2cc(Cc3ccc(-c4cscn4)cc3)c3sccc3n2)C1 (centres unmarked) [Compound 210, N-(1-methyl-3-piperidyl)-7-[(4-thiazol-4-ylphenyl)methyl]thieno[3,2-b]pyridine-5-carboxamide]
EC50: 2340 nM
Emax: 82.2%

CN1CCC(NC(=O)c2cc(Cc3ccc(-c4cscn4)cc3)c3sccc3n2)CC1 [Compound 211, N-(1-methyl-4-piperidyl)-7-[(4-thiazol-4-ylphenyl)methyl]thieno[3,2-b]pyridine-5-carboxamide]
EC50: 1780 nM
Emax: 82.6%

O=C(N[C@@H]1CCCOC1)c1cc(Cc2ccc(-c3cscn3)cc2)c2sccc2n1 [Compound 212, N-[(3R)-tetrahydropyran-3-yl]-7-[(4-thiazol-4-ylphenyl)methyl]thieno[3,2-b]pyridine-5-carboxamide]
EC50: 858 nM
Emax: 73.3%

O=C(N[C@H]1CCCOC1)c1cc(Cc2ccc(-c3cscn3)cc2)c2sccc2n1 [Compound 213, N-([3S)-tetrahydropyran-3-yl]-7-[(4-thiazol-4-ylphenyl)methyl]thieno[3.2-b]pyridine-5-carboxamide]
EC50: 1120 nM
Emax: 61.2%

CN(C(=O)c1cc(Cc2ccc(-c3cscn3)cc2)c2sccc2n1)C1CCOCC1 [Compound 214, N-methyl-N-tetrahydropyran-4-yl-7-[(4-thiazol-4-ylphenyl)methyl]thieno[3,2-b]pyridine-5-carboxamide]
EC50: 5950 nM
Emax: 81.1%

O=C(N[C@H]1CCOC[C@@H]1O)c1cc(Cc2ccc(-c3cscn3)cc2)c2sccc2n1 [Compound 215, N-[(3R,4S)-3-hydroxytetrahydropyran-4-yl]-7-[(4-thiazol-4-ylphenyl)methyl]thieno[3,2-b]pyridine-5-carboxamide]
EC50: 10.1 nM
Emax: 72.7%

O=C(N[C@H]1COCC[C@@H]1O)c1cc(Cc2ccc(-c3cscn3)cc2)c2sccc2n1 [Compound 216]
EC50: 22 nM
Emax: 81.2%

O=C(N[C@H]1CCCC[C@@H]1O)c1cc(Cc2ccc(-c3cscn3)cc2)c2sccc2n1 [Compound 217, N-[(1S,2S)-2-hydroxycyclohexyl]-7-[(4-thiazol-4-ylphenyl)methyl]thieno[3,2-b]pyridine-5-carboxamide]
EC50: 45.4 nM
Emax: 74.8%

CO[C@H]1CCCC[C@@H]1NC(=O)c1cc(Cc2ccc(-c3cscn3)cc2)c2sccc2n1 [Compound 218, N-[(1S,2S)-2-methoxycyclohexyl]-7-[(4-thiazol-4-ylphenyl)methyl]thieno[3,2-b]pyridine-5-carboxamide]
EC50: > 10000 nM
Emax: 52.2%

O=C(N[C@H]1CCCCC[C@@H]1O)c1cc(Cc2ccc(-c3cscn3)cc2)c2sccc2n1 [Compound 219, N-[(1S,2S)-2-hydroxycycloheptyl]-7-[(4-thiazol-4-ylphenyl)methyl]thieno[3,2-b]pyridine-5-carboxamide]
EC50: 144 nM
Emax: 73%

O=C(NC1CCN2CCCC12)c1cc(Cc2ccc(-c3cscn3)cc2)c2sccc2n1 (centres unmarked) [Compound 220, N-(hexahydro-1H-pyrrolizin-1-yl)-7-[(4-thiazol-4-ylphenyl)methyl]thieno[3,2-b]pyridine-5-carboxamide]
EC50: 1280 nM
Emax: 80.6%

O=C(NC1CCCNC1=O)c1cc(Cc2ccc(-c3cscn3)cc2)c2sccc2n1 (centres unmarked) [Compound 221, N-(2-oxo-3-piperidyl)-7-[(4-thiazol-4-ylphenyl)methyl]thieno[3,2-b]pyridine-5-carboxamide]
EC50: 595 nM
Emax: 86.9%

O=C(NC1CCCCNC1=O)c1cc(Cc2ccc(-c3cscn3)cc2)c2sccc2n1 (centres unmarked) [Compound 222, N-(2-oxoazepan-3-yl)-7-[(4-thiazol-4-ylphenyl)methyl]thieno[3,2-b]pyridine-5-carboxamide]
EC50: 317 nM
Emax: 80.3%

Cn1cc(-c2ccc(Cc3cc(C(=O)N[C@H]4CCC[C@@H]4O)nc4ccsc34)cn2)cn1 [Compound 223, N-[(1S,2S)-2-hydroxycyclopentyl]-7-[[6-(1-methylpyrazol-4-yl)-3-pyridyl]methyl]thieno[3,2-b]pyridine-5-carboxamide]
EC50: 29.4 nM
Emax: 79.9%

Cn1cc(-c2ccc(Cc3cc(C(=O)N[C@H]4CCCC[C@@H]4O)nc4ccsc34)cn2)cn1 [Compound 224, N-[(1S,2S)-2-hydroxycyclohexyl]-7-[[6-(1-methylpyrazol-4-yl)-3-pyridyl]methyl]thieno[3,2-b]pyridine-5-carboxamide]
EC50: 13.4 nM
Emax: 71.2%

Cn1cc(-c2ccc(Cc3cc(C(=O)N[C@H]4CCOC[C@@H]4O)nc4ccsc34)cn2)cn1 [Compound 225, N-[(3R,4S)-3-hydroxytetrahydropyran-4-yl]-7-[[6-(1-methylpyrazol-4-yl)-3-pyridyl]methyl]thieno[3,2-b]pyridine-5-carboxamide]
EC50: 7.31 nM
Emax: 63.6%

Cn1cc(-c2ccc(Cc3cc(C(=O)N[C@H]4CCCCC[C@@H]4O)nc4ccsc34)cn2)cn1 [Compound 226, N-[(1S,2S)-2-hydroxycycloheptyl]-7-[[6-(1-methylpyrazol-4-yl)-3-pyridyl]methyl]thieno[3,2-b]pyridine-5-carboxamide]
EC50: 9.36 nM
Emax: 66.2%

O=C(N[C@@H]1CC[C@H]1O)c1cc(Cc2ccc(-n3cccn3)cc2)c2sccc2n1 [Compound 227, N-[(1R,2R)-2-hydroxycyclobutyl]-7-[(4-pyrazol-1-ylphenyl)methyl]thieno[3,2-b]pyridine-5-carboxamide]
EC50: 125 nM
Emax: 79.8%

O=C(NC1CCOCC1)c1cc(Cc2ccc(-n3cccn3)cc2)c2sccc2n1 [Compound 228, 7-[(4-pyrazol-1-ylphenyl)methyl]-N-tetrahydropyran-4-yl-thieno[3,2-b]pyridine-5-carboxamide]
EC50: 160 nM
Emax: 81.8%

Cn1cc(-c2ccc(Cc3cc(C(=O)NC4CCOCC4)nc4ccsc34)cc2)nn1 [Compound 229, 7-[[4-(1-methyltriazol-4-yl)phenyl]methyl]-N-tetrahydropyran-4-yl-thieno[3,2-b]pyridine-5-carboxamide]
EC50: 27.1 nM
Emax: 78.6%
